{"source": "patent US11998642B2", "about": "(priority 2011, dated 2024)", "key": {"[1]": {"conditions": "cited from earlier work"}, "[2]": {"conditions": "cited from earlier work", "remark": "listed apart in the source"}, "WT αHL pore": {"biological_target": "WT αHL pore (Staphylococcus aureus, UniProt P09616)", "sequence (P09616 27-319 limits assumed)": "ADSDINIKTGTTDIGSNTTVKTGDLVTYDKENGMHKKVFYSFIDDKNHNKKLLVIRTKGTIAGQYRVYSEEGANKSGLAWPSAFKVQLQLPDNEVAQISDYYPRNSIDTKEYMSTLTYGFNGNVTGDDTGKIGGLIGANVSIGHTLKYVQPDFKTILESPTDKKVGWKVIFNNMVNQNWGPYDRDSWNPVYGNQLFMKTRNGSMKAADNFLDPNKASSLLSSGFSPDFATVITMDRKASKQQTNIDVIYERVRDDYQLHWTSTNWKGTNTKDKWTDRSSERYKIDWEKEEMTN", "type": "biochemical, staphylococcal", "conditions": "pH 8"}, "αHL": {"biological_target": "αHL (Staphylococcus aureus, UniProt P09616)", "sequence (P09616 27-319 limits assumed)": "as above", "conditions": "pH 7; cited from earlier work"}, "cell membrane": {"tested_on": "cell membrane", "conditions": "Xu & McLeod 2001; cited from earlier work"}}, "note": "Like-named read-outs stand apart in the source and are kept apart here.", "data": [{"compound": "O=C(O)CN(CCN(CC(=O)O)CC(=O)O)CC(=O)O", "note": "[EDTA]", "values": [{"measurement": "koff for Ca^2+ dissociation", "setting": "[1]; Naraghi 1997, Johnson et al. 1999", "result": "< 1", "unit": "s⁻¹"}]}, {"compound": "miproxifene phosphate", "values": [{"measurement": "aqueous solubility greater than miproxifene", "setting": "[2]; relative to miproxifene, Rautio et al. 2008", "result": "1,000 fold"}]}, {"compound": "OC[C@H]1O[C@@H]2O[C@H]3[C@H](O)[C@@H](O)[C@@H](O[C@H]4[C@H](O)[C@@H](O)[C@@H](O[C@H]5[C@H](O)[C@@H](O)[C@@H](O[C@H]6[C@H](O)[C@@H](O)[C@@H](O[C@H]7[C@H](O)[C@@H](O)[C@@H](O[C@H]8[C@H](O)[C@@H](O)[C@@H](O[C@H]9[C@H](O)[C@@H](O)[C@@H](O[C@H]1[C@H](O)[C@H]2O)O[C@@H]9CO)O[C@@H]8CO)O[C@@H]7CO)O[C@@H]6CO)O[C@@H]5CO)O[C@@H]4CO)O[C@@H]3CO", "note": "[γCD, γ-cyclodextrin]", "values": [{"measurement": "current blockade (blocking) amplitude, mean±s.d.", "setting": "WT αHL pore", "result": "63.7±2.0", "unit": "%"}, {"measurement": "dissociation rate, mean±s.d.", "setting": "WT αHL pore", "result": "4.0 ± 0.6", "unit": "s⁻¹"}, {"measurement": "blocking amplitude", "setting": "αHL", "result": "~60", "unit": "%"}, {"measurement": "dissociation rate", "setting": "αHL", "result": 2.0, "unit": "s⁻¹"}]}, {"compound": "CC/C(=C(\\c1ccc(O)cc1)c1ccc(OCCN(C)C)cc1)c1ccc(C(C)C)cc1", "note": "[Miproxifene, miproxifene]", "values": [{"measurement": "water solubility less than miproxifene phosphate", "setting": "[2]; relative to miproxifene phosphate", "result": "1,000 times"}]}, {"compound": "fluo-4", "values": [{"measurement": "koff for Ca^2+ dissociation", "setting": "[1]", "result": "~400", "unit": "s⁻¹"}]}, {"compound": "COc1cccc2c1C(=O)c1c(O)c3c(c(O)c1C2=O)C[C@@](O)(C(=O)CO)C[C@@H]3O[C@H]1C[C@H](N)[C@H](O)[C@H](C)O1", "note": "[doxorubicin]", "values": [{"measurement": "permeability to the cell membrane", "setting": "cell membrane", "result": "able to access the cytosol and is"}]}]}
